Earlier results on one substance are cited in patent US20100215723A1, “Wound Dressing with Antimicrobial Gauze and Bonding Agent” (priority 2009, published 2010).

Data set [1] has as its system pseudomonas aeruginosa. Conditions: stated as known.
Data set [2] has as its system aspergillus niger. Conditions: stated as known.

For Polyhexamethylene biguanide [PHMB], the “indicative MIC value” in data set [1] is 100 ppm; in data set [2], 750 ppm.
